Results published in ChEMBL document CHEMBL3124787, “Discovery of novel bis-oxazolidinone compounds as potential potent and selective antitubercular agents” (Bioorg Med Chem Lett, 2014).

Tests used:
Type in all cases: functional
[1] = tested on: Mycobacterium tuberculosis; assay: Ratio of MIC for compound to linezolid for multidrug-resistant Mycobacterium tuberculosis
[2] = tested on: Mycobacterium tuberculosis; assay: Antitubercular activity against extensive drug-resistant Mycobacterium tuberculosis clinical isolate 5 assessed as growth inhibition by microdilution method
[3] = tested on: Mycobacterium tuberculosis; assay: Ratio of MIC for compound to linezolid for extensive drug-resistant Mycobacterium tuberculosis
[4] = tested on: Mycobacterium tuberculosis; assay: Antitubercular activity against extensive drug-resistant Mycobacterium tuberculosis clinical isolate 4 assessed as growth inhibition by microdilution method
[5] = tested on: Mycobacterium tuberculosis; assay: Antitubercular activity against isoniazid-resistant Mycobacterium tuberculosis H37RV clinical isolate 1 assessed as growth inhibition by microdilution method; details: H37Rv isolate 1
[6] = tested on: Mycobacterium tuberculosis; assay: Antitubercular activity against multidrug-resistant Mycobacterium tuberculosis clinical isolate 3 assessed as growth inhibition by microdilution method
[7] = tested on: Mycobacterium tuberculosis; assay: Antitubercular activity against extensive drug-resistant Mycobacterium tuberculosis clinical isolate 7 assessed as growth inhibition by microdilution method
[8] = tested on: Mycobacterium tuberculosis; assay: Antitubercular activity against extensive drug-resistant Mycobacterium tuberculosis clinical isolate 6 assessed as growth inhibition by microdilution method
[9] = tested on: Mycobacterium tuberculosis; assay: Antitubercular activity against multidrug-resistant Mycobacterium tuberculosis clinical isolate 2 assessed as growth inhibition by microdilution method

SMILES | Ratio [1] | MIC [2] [µg/mL] | Ratio [3] | MIC [4] [µg/mL] | MIC [5] [µg/mL] | MIC [6] [µg/mL] | MIC [7] [µg/mL] | MIC [8] [µg/mL] | MIC [9] [µg/mL]
COc1ccc(N2C[C@@H](COc3ccc(N4C[C@H](CNC(C)=O)OC4=O)cc3F)OC2=O)cc1 | >20 | 4 | >20 | 4 | 4 | 4 | 8 | 2 | 4
NNC(=O)c1ccncc1 [ISONIAZID] | – | 4 | – | 2 | 2 | 2 | 8 | 4 | 8
CC(=O)NC[C@H]1CN(c2ccc(OC[C@@H]3CN(c4ccccc4)C(=O)O3)c(F)c2)C(=O)O1 | >20 | 4 | >20 | 4 | 8 | 4 | 8 | 2 | 4
CC(=O)NC[C@H]1CN(c2ccc(N3CCOCC3)c(F)c2)C(=O)O1 [LINEZOLID] | – | 0.25 | – | 1 | 0.25 | 0.25 | 0.25 | 0.25 | –
